Measured values published in PubChem BioAssay (NCI).
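Grown in 96-well plates, cells were treated for 48 hours with each compound at five concentrations. Insufficient inhibition: endpoint recorded as highest concentration tested. TGI: concentration producing complete growth inhibition.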

Legend:
Assay in all cases: inhibition of tumour cell growth, NCI panel, 48 h
786-0 renal = tested on: 786-0 renal
TK-10 renal = tested on: TK-10 renal
SF-539 CNS = tested on: SF-539 CNS
SF-268 CNS = tested on: SF-268 CNS
MDA-MB-231 breast = tested on: MDA-MB-231 breast
HOP-92 NSCLC = tested on: HOP-92 NSCLC
OVCAR-4 ovarian = tested on: OVCAR-4 ovarian
HS 578T breast = tested on: HS 578T breast
MOLT-4 leukemia = tested on: MOLT-4 leukemia
A498 renal = tested on: A498 renal
PC-3 prostate = tested on: PC-3 prostate
SF-295 CNS = tested on: SF-295 CNS
MCF7 breast = tested on: MCF7 breast
A549 NSCLC = tested on: A549 NSCLC
ACHN renal = tested on: ACHN renal
HL-60(TB) leukemia = tested on: HL-60(TB) leukemia
SK-MEL-5 melanoma = tested on: SK-MEL-5 melanoma
SR leukemia = tested on: SR leukemia
OVCAR-8 ovarian = tested on: OVCAR-8 ovarian
DU-145 prostate = tested on: DU-145 prostate
M14 melanoma = tested on: M14 melanoma
NCI-H460 lung = tested on: NCI-H460 lung
SNB-75 CNS = tested on: SNB-75 CNS
SNB-19 CNS = tested on: SNB-19 CNS
HCC-2998 colon = tested on: HCC-2998 colon
BT-549 breast = tested on: BT-549 breast
CAKI-1 renal = tested on: CAKI-1 renal
SK-MEL-2 melanoma = tested on: SK-MEL-2 melanoma
KM12 colon = tested on: KM12 colon
OVCAR-5 ovarian = tested on: OVCAR-5 ovarian
MDA-MB-435 = tested on: MDA-MB-435
UACC-62 melanoma = tested on: UACC-62 melanoma
SN12C renal = tested on: SN12C renal
NCI-H226 lung = tested on: NCI-H226 lung
COLO 205 colon = tested on: COLO 205 colon
RXF 393 renal = tested on: RXF 393 renal
EKVX NSCLC = tested on: EKVX NSCLC
HCT-15 colon = tested on: HCT-15 colon
NCI-H522 lung = tested on: NCI-H522 lung
K-562 leukemia = tested on: K-562 leukemia
MDA-N = tested on: MDA-N
NCI/ADR-RES ovarian = tested on: NCI/ADR-RES ovarian
T-47D breast = tested on: T-47D breast
SW-620 colon = tested on: SW-620 colon
U251 CNS = tested on: U251 CNS
OVCAR-3 ovarian = tested on: OVCAR-3 ovarian
CCRF-CEM leukemia = tested on: CCRF-CEM leukemia
SK-MEL-28 melanoma = tested on: SK-MEL-28 melanoma
MALME-3M melanoma = tested on: MALME-3M melanoma
LOX IMVI melanoma = tested on: LOX IMVI melanoma
UACC-257 melanoma = tested on: UACC-257 melanoma
IGROV1 ovarian = tested on: IGROV1 ovarian
RPMI-8226 leukemia = tested on: RPMI-8226 leukemia
HT29 colon = tested on: HT29 colon
HCT-116 colon = tested on: HCT-116 colon
SK-OV-3 ovarian = tested on: SK-OV-3 ovarian
UO-31 renal = tested on: UO-31 renal
NCI-H23 lung = tested on: NCI-H23 lung
HOP-62 NSCLC = tested on: HOP-62 NSCLC

CC1=C(C(=O)N[C@@H](CC(C)C)C(=O)O)N2C(=O)[C@@H](NC(=O)[C@@H](N)Cc3ccccc3)[C@H]2SC1
TGI (786-0 renal): > 100 µM | TGI (TK-10 renal): > 100 µM | TGI (SF-539 CNS): > 100 µM | TGI (SF-268 CNS): > 100 µM | TGI (MDA-MB-231 breast): > 100 µM | TGI (HOP-92 NSCLC): > 100 µM | TGI (OVCAR-4 ovarian): > 100 µM | TGI (HS 578T breast): > 100 µM | TGI (MOLT-4 leukemia): > 100 µM | TGI (A498 renal): > 100 µM | TGI (PC-3 prostate): > 100 µM | TGI (SF-295 CNS): > 100 µM | TGI (MCF7 breast): > 100 µM | TGI (A549 NSCLC): > 100 µM | TGI (ACHN renal): > 100 µM | TGI (HL-60(TB) leukemia): > 100 µM | TGI (SK-MEL-5 melanoma): > 100 µM | TGI (SR leukemia): > 100 µM | TGI (OVCAR-8 ovarian): > 100 µM | TGI (DU-145 prostate): > 100 µM | TGI (M14 melanoma): > 100 µM | TGI (NCI-H460 lung): > 100 µM | TGI (SNB-75 CNS): > 100 µM | TGI (SNB-19 CNS): > 100 µM | TGI (HCC-2998 colon): > 100 µM | TGI (BT-549 breast): > 100 µM | TGI (CAKI-1 renal): > 100 µM | TGI (SK-MEL-2 melanoma): > 100 µM | TGI (KM12 colon): > 100 µM | TGI (OVCAR-5 ovarian): > 100 µM | TGI (MDA-MB-435): > 100 µM | TGI (UACC-62 melanoma): > 100 µM | TGI (SN12C renal): > 100 µM | TGI (NCI-H226 lung): > 100 µM | TGI (COLO 205 colon): > 100 µM | TGI (RXF 393 renal): > 100 µM | TGI (EKVX NSCLC): > 100 µM | TGI (HCT-15 colon): > 100 µM | TGI (NCI-H522 lung): > 100 µM | TGI (K-562 leukemia): > 100 µM | TGI (MDA-N): > 100 µM | TGI (NCI/ADR-RES ovarian): > 100 µM | TGI (T-47D breast): > 100 µM | TGI (SW-620 colon): > 100 µM | TGI (U251 CNS): > 100 µM | TGI (OVCAR-3 ovarian): > 100 µM | TGI (CCRF-CEM leukemia): > 100 µM | TGI (SK-MEL-28 melanoma): > 100 µM | TGI (MALME-3M melanoma): > 100 µM | TGI (LOX IMVI melanoma): > 100 µM | TGI (UACC-257 melanoma): > 100 µM | TGI (IGROV1 ovarian): > 100 µM | TGI (RPMI-8226 leukemia): > 100 µM

CN(C(=O)CCC(=O)O)c1ccccc1C(=O)O
TGI (786-0 renal): > 100 µM | TGI (HT29 colon): > 100 µM | TGI (HCT-116 colon): > 100 µM | TGI (TK-10 renal): > 100 µM | TGI (SK-OV-3 ovarian): > 100 µM | TGI (SF-539 CNS): > 100 µM | TGI (SF-268 CNS): > 100 µM | TGI (MDA-MB-231 breast): > 100 µM | TGI (HOP-92 NSCLC): > 100 µM | TGI (OVCAR-4 ovarian): > 100 µM | TGI (HS 578T breast): > 100 µM | TGI (MOLT-4 leukemia): > 100 µM | TGI (A498 renal): > 100 µM | TGI (PC-3 prostate): > 100 µM | TGI (SF-295 CNS): > 100 µM | TGI (MCF7 breast): > 100 µM | TGI (A549 NSCLC): > 100 µM | TGI (ACHN renal): > 100 µM | TGI (HL-60(TB) leukemia): > 100 µM | TGI (SK-MEL-5 melanoma): > 100 µM | TGI (UO-31 renal): > 100 µM | TGI (SR leukemia): > 100 µM | TGI (OVCAR-8 ovarian): > 100 µM | TGI (DU-145 prostate): > 100 µM | TGI (M14 melanoma): > 100 µM | TGI (NCI-H460 lung): > 100 µM | TGI (SNB-75 CNS): > 100 µM | TGI (SNB-19 CNS): > 100 µM | TGI (HCC-2998 colon): > 100 µM | TGI (BT-549 breast): > 100 µM | TGI (CAKI-1 renal): > 100 µM | TGI (SK-MEL-2 melanoma): > 100 µM | TGI (KM12 colon): > 100 µM | TGI (OVCAR-5 ovarian): > 100 µM | TGI (MDA-MB-435): > 100 µM | TGI (UACC-62 melanoma): > 100 µM | TGI (NCI-H226 lung): > 100 µM | TGI (COLO 205 colon): > 100 µM | TGI (RXF 393 renal): > 100 µM | TGI (EKVX NSCLC): > 100 µM | TGI (HCT-15 colon): > 100 µM | TGI (K-562 leukemia): > 100 µM | TGI (MDA-N): > 100 µM | TGI (NCI/ADR-RES ovarian): > 100 µM | TGI (T-47D breast): > 100 µM | TGI (SW-620 colon): > 100 µM | TGI (U251 CNS): > 100 µM | TGI (OVCAR-3 ovarian): > 100 µM | TGI (CCRF-CEM leukemia): > 100 µM | TGI (SK-MEL-28 melanoma): > 100 µM | TGI (MALME-3M melanoma): > 100 µM | TGI (LOX IMVI melanoma): > 100 µM | TGI (UACC-257 melanoma): > 100 µM | TGI (NCI-H23 lung): > 100 µM | TGI (IGROV1 ovarian): > 100 µM | TGI (RPMI-8226 leukemia): > 100 µM

O=C(O)CSc1ccc(N=C=S)cc1
TGI (786-0 renal): > 100 µM | TGI (HT29 colon): > 100 µM | TGI (HCT-116 colon): > 100 µM | TGI (TK-10 renal): > 100 µM | TGI (SK-OV-3 ovarian): > 100 µM | TGI (SF-539 CNS): 77.1 µM | TGI (SF-268 CNS): > 100 µM | TGI (MDA-MB-231 breast): > 100 µM | TGI (HOP-92 NSCLC): > 100 µM | TGI (OVCAR-4 ovarian): > 100 µM | TGI (HS 578T breast): > 100 µM | TGI (MOLT-4 leukemia): > 100 µM | TGI (A498 renal): > 100 µM | TGI (PC-3 prostate): > 100 µM | TGI (SF-295 CNS): > 100 µM | TGI (MCF7 breast): > 100 µM | TGI (A549 NSCLC): > 100 µM | TGI (ACHN renal): > 100 µM | TGI (SK-MEL-5 melanoma): > 100 µM | TGI (UO-31 renal): > 100 µM | TGI (SR leukemia): 47.5 µM | TGI (OVCAR-8 ovarian): > 100 µM | TGI (DU-145 prostate): > 100 µM | TGI (M14 melanoma): > 100 µM | TGI (NCI-H460 lung): > 100 µM | TGI (SNB-75 CNS): > 100 µM | TGI (SNB-19 CNS): > 100 µM | TGI (HCC-2998 colon): > 100 µM | TGI (BT-549 breast): > 100 µM | TGI (CAKI-1 renal): > 100 µM | TGI (SK-MEL-2 melanoma): > 100 µM | TGI (KM12 colon): > 100 µM | TGI (OVCAR-5 ovarian): > 100 µM | TGI (HOP-62 NSCLC): > 100 µM | TGI (MDA-MB-435): > 100 µM | TGI (UACC-62 melanoma): > 100 µM | TGI (SN12C renal): > 100 µM | TGI (NCI-H226 lung): > 100 µM | TGI (COLO 205 colon): > 100 µM | TGI (RXF 393 renal): > 100 µM | TGI (EKVX NSCLC): > 100 µM | TGI (HCT-15 colon): > 100 µM | TGI (NCI-H522 lung): > 100 µM | TGI (MDA-N): > 100 µM | TGI (NCI/ADR-RES ovarian): > 100 µM | TGI (T-47D breast): > 100 µM | TGI (SW-620 colon): > 100 µM | TGI (U251 CNS): > 100 µM | TGI (OVCAR-3 ovarian): > 100 µM | TGI (CCRF-CEM leukemia): 51.5 µM | TGI (SK-MEL-28 melanoma): > 100 µM | TGI (MALME-3M melanoma): 84 µM | TGI (LOX IMVI melanoma): > 100 µM | TGI (UACC-257 melanoma): > 100 µM | TGI (NCI-H23 lung): > 100 µM | TGI (IGROV1 ovarian): > 100 µM | TGI (RPMI-8226 leukemia): 57.1 µM
